Measured values taken from ChEMBL document CHEMBL1144719, “1-(1-Arylethylidene)thiosemicarbazide derivatives: a new class of tyrosinase inhibitors” (Bioorg Med Chem, 2008).

Target: T1, Tyrosinase (Agaricus bisporus, UniProt O42713)
T1 sequence (O42713 whole entry): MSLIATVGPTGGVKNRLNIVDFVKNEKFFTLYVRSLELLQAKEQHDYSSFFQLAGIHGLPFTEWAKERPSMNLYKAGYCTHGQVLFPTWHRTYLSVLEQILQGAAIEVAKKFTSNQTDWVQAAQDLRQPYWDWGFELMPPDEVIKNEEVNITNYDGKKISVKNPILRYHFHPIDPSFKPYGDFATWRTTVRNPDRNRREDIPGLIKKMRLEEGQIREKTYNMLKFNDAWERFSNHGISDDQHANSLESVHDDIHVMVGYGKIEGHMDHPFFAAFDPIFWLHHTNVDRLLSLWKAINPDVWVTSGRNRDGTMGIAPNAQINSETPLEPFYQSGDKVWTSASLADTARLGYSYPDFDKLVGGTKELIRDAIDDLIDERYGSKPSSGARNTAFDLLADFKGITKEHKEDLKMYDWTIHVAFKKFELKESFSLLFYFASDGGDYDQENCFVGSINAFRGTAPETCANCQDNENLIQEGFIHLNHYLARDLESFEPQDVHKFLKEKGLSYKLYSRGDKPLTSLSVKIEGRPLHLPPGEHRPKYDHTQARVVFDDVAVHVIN

First: COc1ccc(/C=C/C(=O)O)cc1 [4-METHOXYCINNAMIC ACID]
Second: COc1ccc(C(C)=O)cc1 [P-METHOXY-ACETOPHENONE]
The IC50 of the first is 4.9-fold lower: 410 µM for the first, 2000 µM for the second. The first is the more potent here.

Compared with `C/C(=N/NC(N)=S)c1ccc(C)cc1`, `C/C(=N/NC(N)=S)c1ccc(F)cc1` is 1.6-fold lower in IC50: 0.27 µM for the first, 0.17 µM for the second.

`CC(=O)c1ccc(F)cc1` and `CC(=O)c1ccccc1` [ACETOPHENONE] are within 1.5-fold of each other in IC50: 990 µM for the first, 850 µM for the second.

Compared with `C/C(=N/NC(N)=S)c1ccc(C(C)C)cc1`, `C/C(=N/NC(N)=S)c1ccc(Br)cc1` is 1.9-fold lower in IC50: 1 µM for the first, 0.52 µM for the second.

First: C/C(=N/NC(N)=S)c1ccc(O)cc1O
Second: C/C(=N/NC(N)=S)c1c(O)cc(O)cc1O
The IC50 of the first is 38-fold lower: 0.58 µM for the first, 22 µM for the second. The first is the more potent here.

Compared with `C/C(=N/NC(N)=S)c1cccnc1`, `C/C(=N/NC(N)=S)c1ccccc1` [ACETOPHENONE-THIOSEMICARBAZONE] is 2.4-fold lower in IC50: 0.82 µM for the first, 0.34 µM for the second. The second is the more potent here.

Compared with `C/C(CCc1ccc(O)cc1)=N/NC(N)=S`, `C/C(=N/NC(N)=S)c1ccc(O)cc1` is 1.7-fold lower in IC50: 0.54 µM for the first, 0.31 µM for the second.

Going from `C/C(=N/NC(N)=S)c1cnccn1` to `C/C(=N/NC(N)=S)c1cccs1`, the IC50 falls from 0.88 µM to 0.14 µM (6.3-fold). The second is the more potent here.

First: NC(=S)N/N=C(/C(=O)c1ccccc1)c1ccccc1
Second: NC(=S)N/N=C(\c1ccccc1)C(O)c1ccccc1 (stereo unspecified)
The IC50 of the first is 1.8-fold higher: 100 µM for the first, 55.5 µM for the second.

First: NNC(N)=S [THIOSEMICARBAZIDE]
Second: COc1ccc(/C(C)=N\NC(N)=S)cc1
The IC50 of the first is 18000-fold higher: 2000 µM for the first, 0.11 µM for the second.

First: COc1ccc(C/C(C)=N\NC(N)=S)cc1
Second: C/C(=N/NC(N)=S)c1ccc(/C(C)=N\NC(N)=S)cc1
The IC50 of the first is 2.8-fold higher: 0.42 µM for the first, 0.15 µM for the second.

`O=c1cccccc1O` [TROPOLONE] gave an IC50 of 0.4 µM.

Target: T2, Tyrosinase (Agaricus bisporus) (UniProt O42713)
T2 sequence (whole entry): T1 sequence (O42713 whole entry)
Experiment: Inhibition of mushroom tyrosinase at 0.10 mM

Work on `NC(=S)N/N=C(/C(=O)c1ccccc1)c1ccccc1` yielded an inhibition of 47%.

Target: T2, Tyrosinase (Agaricus bisporus)
Experiment: Inhibition of mushroom tyrosinase at 2 mM

Going from `COc1ccc(C(C)=O)cc1` [P-METHOXY-ACETOPHENONE] to `NNC(N)=S` [THIOSEMICARBAZIDE], the inhibition falls from 47.2% to 39.9%.
